Data reported in patent US20240174727A1, “LONG-ACTING NATRIURETIC PEPTIDES AND USES THEREOF” (Eli Lilly and Company, priority 2022, published 2024).
Numbered stars: 1 amine (or outer) side, 2 acyl side, 3 side chain; on linkers, the order of the positions; unused ones are H or OH. Bridge positions count the residues as written; N and C are the ends. Square brackets hold non-standard residues; d marks the D form. * marks the point of attachment. PEG24 = NCCOCCOCCOCCOCCOCCOCCOCCOCCOCCOCCOCCOCCOCCOCCOCCOCCOCCOCCOCCOCCOCCOCCOCCOCCC(=O)O; C20 diacid = O=C(O)CCCCCCCCCCCCCCCCCCC(=O)*; γGlu = O=C(O)[C@H](CCC(=O)[*:2])N[*:1]; CH2 = C([*:1])[*:2]

System: plasma cGMP
Assay: In vivo monkey studies, plasma cGMP ELISA
Set-up: species or system male cynomolgus monkeys
Settings: for Net cGMP (nM) Change from Baseline 0.083 h: 0.083 h postdose; for Net cGMP (nM) Change from Baseline 0.083 h / Net cGMP (nM) Change from Baseline 0.25 h / Net cGMP (nM) Change from Baseline 0.5 h / Net cGMP (nM) Change from Baseline 1 h / Net cGMP (nM) Change from Baseline 2 h / Net cGMP (nM) Change from Baseline 4 h / Net cGMP (nM) Change from Baseline 8 h / Net cGMP (nM) Change from Baseline 12 h / Net cGMP (nM) Change from Baseline 24 h / Net cGMP (nM) Change from Baseline 36 h / Net cGMP (nM) Change from Baseline 48 h / Net cGMP (nM) Change from Baseline 72 h / Net cGMP (nM) Change from Baseline 96 h / Net cGMP (nM) Change from Baseline 120 h / Net cGMP (nM) Change from Baseline 144 h / Net cGMP (nM) Change from Baseline 168 h: monkey plasma; for Net cGMP (nM) Change from Baseline 0.25 h: 0.25 h postdose; for Net cGMP (nM) Change from Baseline 0.5 h: 0.5 h postdose; for Net cGMP (nM) Change from Baseline 1 h: 1 h postdose; for Net cGMP (nM) Change from Baseline 2 h: 2 h postdose; for Net cGMP (nM) Change from Baseline 4 h: 4 h postdose; for Net cGMP (nM) Change from Baseline 8 h: 8 h postdose; for Net cGMP (nM) Change from Baseline 12 h: 12 h postdose; for Net cGMP (nM) Change from Baseline 24 h: 24 h postdose; for Net cGMP (nM) Change from Baseline 36 h: 36 h postdose; for Net cGMP (nM) Change from Baseline 48 h: 48 h postdose; for Net cGMP (nM) Change from Baseline 72 h: 72 h postdose; for Net cGMP (nM) Change from Baseline 96 h: 96 h postdose; for Net cGMP (nM) Change from Baseline 120 h: 120 h postdose; for Net cGMP (nM) Change from Baseline 144 h: 144 h postdose; for Net cGMP (nM) Change from Baseline 168 h: 168 h postdose; for net cGMP levels (result in words): monkeys, single SC dose, plasma
Description: In vivo monkey studies were conducted as described in detail below. Young adult-to-adult male cynomolgus monkeys were given a single dose subcutaneously (SC). Blood was collected predose and at various pre-determined timepoints throughout the study period. Aliquot of cynomolgus monkey plasma was received for cyclic cGMP (cGMP) measurement and stored at −80° C. prior to use.
Control plasma was made for determining the recovery rate of spike-in cGMP using Enzo cGMP complete ELISA kit (Enzo Life Sciences, Inc, Farmingdale, NY, cat no. ADI-901-164). Briefly, blood from male Sprague Dawley rats (Inotiv, Indianapolis, IN), about 7 months old, was collected in a BD Vacutainer EDTA tube (Becton Dickinson, Franklin Lakes, NJ, cat no. BD-367856) with volume of approximate 4 mL through retro orbital bleeding. Plasma was prepared by spinning the tube in an Eppendorf Refrigerated Centrifuge 5810R (Brinkman Instruments, Inc, Westbury, NY) at 3500 rpm (3000×g) for 10 min at 4° C. Plasma was collected as Positive Control plasma. Cyclic GMP (cGMP standard from Enzo cGMP complete ELISA kit) was added to the positive control plasma at a final concentration of additional 40 nM. Positive Control and Spiked-in Control plasma were aliquoted and stored at −80° C.
The cGMP content was measured using the Enzo cGMP complete ELISA kit following the manufacturer's directions with modifications as described below. The cGMP standards provided in the kit were diluted 1:3 ranging from 50 nM to 0.023 nM in 1× assay buffer that was diluted in water from 2× assay buffer provided in the kit. The cGMP standards ([…]) were transferred to a 96-well polypropylene plate (Thermo Scientific, cat no. 442587).
Plasma samples were thawed from −80° C. and diluted 1:20 in 1× assay buffer in the above plate with a final volume of 150 μL. Assay buffer was added (150 μL) for both a non-specific binding control (in the absence of cGMP antibody) and a maximum binding control (in the absence of competing cGMP) in duplicate wells. Positive Control and Spiked-in Control plasma were diluted 1:20 in 1× assay buffer with a final volume of 150 μL in duplicate wells of the above plate. All diluted plasma was mixed by pipetting up and down several times.
Acetylation reagent mix was prepared by adding 1-part of acetic anhydride into 2-parts of triethylamine provided in the kit and mixing well using Vortex (Scientific Industries, Inc, Bohemia, NY). All controls, standards, and plasma samples were acetylated by adding 15 μL of acetylation reagent mix into the plate, one column at a time, and shaking for 1 min on a Titer Plate Shaker (Lab-Line Instrument, Inc., Melrose Park, IL) at room temperature. The plate was shaken for an additional 1 min following the acetylation of the last column to ensure the reaction was completed.
Acetylated controls, standard and plasma samples were transferred (100 μL) to an ELISA plate (n=1). Then 50 μL of cGMP conjugate were added to each well followed by the addition of 50 μL cGMP antibody to each well except for two non-specific binding wells, in which 50 μL of 1× assay buffer were added. The plate was then sealed and shaken for 2 h at room temperature on the plate shaker. Following this incubation, the plate was washed five times using 200 μL of 1× wash buffer diluted in water from 5× wash buffer provided in the kit. Then, 200 μL of para-Nitrophenylphosphate (pNpp) were added to each well. The plate was sealed with a new plate sealer and shaken in dark for 1 h at room temperature on the plate shaker. Finally, 50 μL of stop solution were added to each well to stop the enzyme reaction. The plate was then read at 405 nm using SpectraMax Plus (Molecular Devices, San Jose, CA).
The mean absorbance at 405 nm (O.D. 405 nm) for the non-specific binding controls was subtracted from the O.D. 405 nm of all samples. The subtracted O.D. 405 nm of all samples were then normalized with the mean subtracted O.D. 405 nm of the maximum binding controls as B/B0%. […]

Molecule	Net cGMP (nM) Change from Baseline 0.083 h (dose 25 nmol/kg)	Net cGMP (nM) Change from Baseline 0.25 h (dose 25 nmol/kg)	Net cGMP (nM) Change from Baseline 0.5 h (dose 25 nmol/kg)	Net cGMP (nM) Change from Baseline 1 h (dose 25 nmol/kg)	Net cGMP (nM) Change from Baseline 2 h (dose 25 nmol/kg)	Net cGMP (nM) Change from Baseline 4 h (dose 25 nmol/kg)	Net cGMP (nM) Change from Baseline 8 h (dose 25 nmol/kg)	Net cGMP (nM) Change from Baseline 12 h (dose 25 nmol/kg)	Net cGMP (nM) Change from Baseline 24 h (dose 25 nmol/kg)	Net cGMP (nM) Change from Baseline 36 h (dose 25 nmol/kg)	Net cGMP (nM) Change from Baseline 48 h (dose 25 nmol/kg)	Net cGMP (nM) Change from Baseline 72 h (dose 25 nmol/kg)	Net cGMP (nM) Change from Baseline 96 h (dose 25 nmol/kg)	Net cGMP (nM) Change from Baseline 120 h (dose 25 nmol/kg)	Net cGMP (nM) Change from Baseline 144 h (dose 25 nmol/kg)	Net cGMP (nM) Change from Baseline 168 h (dose 25 nmol/kg)	net cGMP levels (result in words)	further results
(BFAEN2-γGlu)-KEKEKG-PEG24-EK-βAla-RSS[CFGGKIDRIGHYSGLGC]PSFRHGSPSSGAPPPS-NH2 (EKXRSSCFGGKIDRIGHYSGLGCPSFRHGSPSSGAPPPS; BFAEN2-γGlu, PEG24, C-terminal amide; MOD_RES 1 N-terminal modified with (BFAEN2-beta-Ala)-KEKEKG-PEG24-; wherein BFAEN2 is Bifurcated Fatty Acid Enantiomer 2; SITE 3 X at position 3 is beta-Alanine; MOD_RES 39 Amidation; DISULFID 7..23 Intrachain thioacetal bond) [Example 145]	-0.82 nM	2.94 nM	4.37 nM	3.19 nM	8.88 nM	11.23 nM	17.87 nM	22.09 nM	24.61 nM	31.53 nM	21.81 nM	21 nM	14.82 nM	14.4 nM	11.99 nM	5.89 nM	increased net cGMP levels	–
{C20 diacid-γGlu}-EKEKEKG[PEG24]EKPRSSCFGKRIDRIGHQSGLGCPSFRHSGSPSSGAPPPSG-NH2 (linker 15-31 via CH2) [Example 132, HOOC-(CH2)18-CO-(γGlu)-EKEKEKG-PEG24-EKPRSS[CFGKRIDRIGHQSGLGCJPSFRHSGSPSSGAPPPSG-NH2]	2.96 nM	11.54 nM	25 nM	29.41 nM	28.64 nM	28.7 nM	24.12 nM	20.96 nM	19.79 nM	17.54 nM	12.7 nM	13.11 nM	11.68 nM	13.22 nM	11.64 nM	7.08 nM	increased net cGMP levels	–
CC[C@H](C)[C@@H]1NC(=O)[C@H](CCCNC(=N)N)NC(=O)[C@H](CC(=O)O)NC(=O)[C@H]([C@@H](C)CC)NC(=O)[C@H](CCCNC(=N)N)NC(=O)[C@H](CCCCN)NC(=O)CNC(=O)[C@H](Cc2ccccc2)NC(=O)[C@@H](NC(=O)[C@H](CO)NC(=O)[C@H](CO)NC(=O)[C@H](CCCNC(=N)N)NC(=O)[C@H](CCCNC(=N)N)NC(=O)[C@H](Cc2ccncc2)NC(=O)[C@H](CO)NC(=O)CNC(=O)[C@H](CCCCN)NC(=O)[C@H](CCC(=O)O)NC(=O)[C@H](CCCCN)NC(=O)[C@H](CCC(=O)O)NC(=O)[C@H](CCCCN)NC(=O)[C@H](CCC(=O)O)NC(=O)CC[C@H](NC(=O)CCCCCCCCCCCCCCCCC(=O)O)C(=O)O)CSCSC[C@@H](C(=O)N2CCC[C@H]2C(=O)N[C@@H](CO)C(=O)N[C@@H](Cc2ccccc2)C(=O)N[C@@H](CCCNC(=N)N)C(=O)N[C@@H](Cc2c[nH]cn2)C(=O)NCC(=O)NCC(=O)N[C@@H](CCCCN)C(=O)N[C@@H](CO)C(=O)N[C@@H](CO)C(=O)NCC(=O)N[C@@H](C)C(=O)N2CCC[C@H]2C(=O)N2CCC[C@H]2C(=O)N2CCC[C@H]2C(=O)N[C@@H](CO)C(N)=O)NC(=O)CNC(=O)[C@H](CC(C)C)NC(=O)CNC(=O)[C@H](CO)NC(=O)[C@H](Cc2ccc(O)cc2)NC(=O)[C@H](Cc2c[nH]cn2)NC(=O)CNC1=O [Example 81]	–	–	–	–	–	–	–	–	–	–	–	–	–	–	–	–	increased net cGMP levels	Net cGMP (nM) Change from Baseline 0.083 h (dose 100 nmol/kg): 5.6 nM; Net cGMP (nM) Change from Baseline 0.25 h (dose 100 nmol/kg): 32.08 nM; Net cGMP (nM) Change from Baseline 0.5 h (dose 100 nmol/kg): 37.47 nM; Net cGMP (nM) Change from Baseline 1 h (dose 100 nmol/kg): 43.98 nM; Net cGMP (nM) Change from Baseline 2 h (dose 100 nmol/kg): 38.64 nM; Net cGMP (nM) Change from Baseline 4 h (dose 100 nmol/kg): 31.25 nM; Net cGMP (nM) Change from Baseline 8 h (dose 100 nmol/kg): 23.05 nM; Net cGMP (nM) Change from Baseline 12 h (dose 100 nmol/kg): 27.6 nM; Net cGMP (nM) Change from Baseline 24 h (dose 100 nmol/kg): 22.83 nM; Net cGMP (nM) Change from Baseline 36 h (dose 100 nmol/kg): 24.25 nM; Net cGMP (nM) Change from Baseline 48 h (dose 100 nmol/kg): 15.44 nM; Net cGMP (nM) Change from Baseline 72 h (dose 100 nmol/kg): 12.4 nM; Net cGMP (nM) Change from Baseline 96 h (dose 100 nmol/kg): 10.48 nM; Net cGMP (nM) Change from Baseline 120 h (dose 100 nmol/kg): 12.63 nM; Net cGMP (nM) Change from Baseline 144 h (dose 100 nmol/kg): 9.54 nM; Net cGMP (nM) Change from Baseline 168 h (dose 100 nmol/kg): 7 nM
{C20 diacid-γGlu}-EKEKEKGEKPRSSCFGKRIDRIGHQSGLGCPSFRHGSPSSGAPPPS-NH2 (linker 14-30 via CH2) [Example 127]	–	–	–	–	–	–	–	–	–	–	–	–	–	–	–	–	increased net cGMP levels	Net cGMP (nM) Change from Baseline 0.083 h (dose 50 nmol/kg): -0.87 nM; Net cGMP (nM) Change from Baseline 0.25 h (dose 50 nmol/kg): 4.09 nM; Net cGMP (nM) Change from Baseline 0.5 h (dose 50 nmol/kg): 8.84 nM; Net cGMP (nM) Change from Baseline 1 h (dose 50 nmol/kg): 8.13 nM; Net cGMP (nM) Change from Baseline 2 h (dose 50 nmol/kg): 8.92 nM; Net cGMP (nM) Change from Baseline 4 h (dose 50 nmol/kg): 10.25 nM; Net cGMP (nM) Change from Baseline 8 h (dose 50 nmol/kg): 13.28 nM; Net cGMP (nM) Change from Baseline 12 h (dose 50 nmol/kg): 18.76 nM; Net cGMP (nM) Change from Baseline 24 h (dose 50 nmol/kg): 20.16 nM; Net cGMP (nM) Change from Baseline 36 h (dose 50 nmol/kg): 19.43 nM; Net cGMP (nM) Change from Baseline 48 h (dose 50 nmol/kg): 18.43 nM; Net cGMP (nM) Change from Baseline 72 h (dose 50 nmol/kg): 12.9 nM; Net cGMP (nM) Change from Baseline 96 h (dose 50 nmol/kg): 11.67 nM; Net cGMP (nM) Change from Baseline 120 h (dose 50 nmol/kg): 9.32 nM; Net cGMP (nM) Change from Baseline 144 h (dose 50 nmol/kg): 9.3 nM; Net cGMP (nM) Change from Baseline 168 h (dose 50 nmol/kg): 9.36 nM
